According to article PMC2862740, “Furin Targeted Drug Delivery for Treatment of Rhabdomyosarcoma in a Mouse Model” (PLoS ONE, 2010):
Entries after “also recorded” stand apart in the source; their conditions may differ. Positions of bridges follow the written chain, without caps; N, C: chain ends. No end group written: not given here.

Assays:
recombinant human furin [1] = test: furin activity, fluorogenic substrate Boc-RRVR-AMC; type: biochemical
Protocol: The enzymatic activity of furin was determined by the cleavage of the fluorogenic substrate Boc-RRVR-AMC (Alexis biochemicals) in presence or absence of peptides. Human recombinant furin (3.3U for reaction; Alexis biochemicals) was preincubated for 15 minutes at RT with the peptide RMS-P3/RR or the peptide RMS-P3/AA as negative control at increasing concentrations. For each assay, the same concentration of substrate (100 µM) was added to a solution containing 50 mM Tris HCl with 1 mM CaCl2 (pH 7) in a total volume of 100 µl. The reaction was followed for 1h while measuring the fluorescence every 10 minutes in a spectrofluorometer at excitation 370 nm/emission 460 nm.

RD cells = test: phage binding to RD cells; type: cell-based
Protocol: (§1) Figure 1 Validation of selected phages binding on RMS cells in vivo and in vitro. (A) Quantification of binding of single phage clones to different cell lines. Six phages selected from in vitro and in vivo screenings were validated individually in binding assays to three RMS cell lines (embryonal RMS: RD; alveolar RMS: Rh30 and Rh4) as well as to normal myoblasts (SkMC-c) and fibroblast cells (MRC-5). Phage clones are ordered according to the frequency of occurrence. Binding was calculated over non-recombinant T7, depicted are mean values ± SD of three independent experiments. (B) RMS-P3 and RMS-P6 phage distribution in RD mouse xenografts. Homing of phages to tumor was compared to control organs. Binding was normalized over phage T7 and tissue weight. Mean values ± SD of four independent experiments are shown. Numerical values for tumor to organ ratios are indicated above the bars. (C) Validation of RMS-P3 peptide sequence by competition of phage binding. 10^6 RD cells were incubated for 30 min with increasing concentrations of RMS-P3 peptide ([…]) or control peptide ([…]). Then, phages (10^9 pfu) were added for 1 h. Phage binding was normalized over non-recombinant T7. Data are presented as percentage of maximal phage binding obtained in the absence of synthetic peptide. Error bars indicate mean ± SD from three independent experiments. […]
Figure 3 Identification of the receptor for RMS-P3. […] Phage binding was quantified over non-recombinant T7 and compared to the binding of wild type phage RMS-P3. […] After tail vein injection of both FITC-RMS-P3/RR or control peptide RMS-P3/AA and circulation of 10 min, mice were perfused, tumors and control organs were dissected and FITC-peptide distribution (green) was evaluated in cryosections under fluorescence microscopy. […] (C) Expression of proprotein convertases (PCs) measured by microarray profiling of 9 RMS cell lines and 30 RMS biopsy samples. […] Immature membrane-bound furin was detected at 103 kD, mature furin at 97 kD. […]

membrane-bound furin = test: peptide affinity chromatography, RD-FUR lysate; type: binding; conditions: western blot, 97kDa
Protocol: (§2) Figure 5 RMS-P3/RR peptide binds directly to furin and inhibits its activity. Lysates of RD-FUR cells (approximately 1 mg of total protein, upper rows) or purified recombinant furin (250 ng; lower rows) were loaded on a RMS-P3/RR column (A) or on the control peptide column RMS-P3/AA (B). The columns were washed 10 times to remove unbound furin. The loaded RMS-P3/RR-column was eluted first with control peptide RMS-P3/AA, then with peptide RMS-P3/RR. The RMS-P3/AA column was eluted first with RMS-P3/RR and subsequently cross-eluted with the control peptide RMS-P3/AA. The presence of furin in aliquots from the columns (1) after binding, (2) flow through, (3) last wash, (4) control elution and (5) competitive elution with RMS-P3/RR (in A) and […] (in B), respectively, was detected by western blotting. (C) Fixed amounts of recombinant furin (3.3U) were incubated with increasing concentrations of RMS-P3/RR peptide or with control peptide (RMS-P3/AA). Furin activity was measured with the fluorogenic substrate Boc-RRVR-AMC at excitation 370 nm/emission 460 nm. The results of three independent experiments ± SD are shown.
(§3) RMS-P3/RR or control peptide RMS-P3/AA were dissolved in 0.2 M phosphate buffer pH 7.2 to 1 mg/ml and covalently linked to NHS-activated sepharose matrix SpinTrapTM (GE Healthcare, Amersham Biosciences, Switzerland). […]

recombinant human furin [2] = test: peptide affinity chromatography, recombinant furin; type: binding; conditions: recombinant human furin without membrane-domain (81 kD), overnight at 4°C, western blot
Protocol: as §2, §3

U87MG cells = test: phage binding to glioblastoma cells; type: cell-based; conditions: compared to myoblasts and fibroblasts; p<0.05
Protocol: (§4) Supplementary file pone.0010445.s001.tif: Figure S1 Phage selection and validation on RMS cells in vivo and in vitro. (A) Biopanning on RD cells in vitro after negative selection on myoblasts (panning I) and (B) fibroblasts (panning II). Enrichment was calculated over non-recombinant phage T7. (C) In vivo selection in Rh4 xenografts. Phages from in vitro selection before enrichment were pooled and used for in vivo selection in Rh4 xenografts. Phages were injected in the tail vein and after 10 min circulation unbound phages were washed by perfusion. Phage binding to tumors and control organs was calculated over non-recombinant phage T7. (D) RMS-P3 and RMS-P6 phage distribution in Rh4 xenografts. Homing of phages in mouse xenografts bearing Rh4 tumors was determined and compared to control organs. Binding was normalized over phage T7 and tissue weight. Mean values of three independent experiments are shown. Numerical values for tumor to organ ratios are indicated above the bars. (E) Quantification of binding of RMS-P3 phage to a panel of tumor cell lines: RMS (RD, Rh30, Rh4), breast tumor (MDA-MB 231), glioblastoma (U87MG), melanoma (A365); and normal myoblasts (SkMC-c) and fibroblast cells (MRC-5). Mean values ± SD of three independent experiments are depicted. (0.55 MB TIF) Click here for additional data file.

Rh4 xenograft tumors = test: phage homing in Rh4 xenografts; type: in vivo, mouse; conditions: aRMS (Rh4) xenograft
Protocol: as §4

MDA-MB 231 cells = test: phage binding to breast carcinoma cells; type: cell-based; conditions: compared to myoblasts and fibroblasts; p<0.05
Protocol: as §4

RD xenograft tumors = test: phage homing in RD xenografts; type: in vivo, mouse; conditions: for phage binding to tumors versus any other organ: RD (or Rh4) xenografts, One-way ANOVA and Tukey-Kramer HSD
Protocol: Figure 1 Validation of selected phages binding on RMS cells in vivo and in vitro. (A) Quantification of binding of single phage clones to different cell lines. Six phages selected from in vitro and in vivo screenings were validated individually in binding assays to three RMS cell lines (embryonal RMS: RD; alveolar RMS: Rh30 and Rh4) as well as to normal myoblasts (SkMC-c) and fibroblast cells (MRC-5). Phage clones are ordered according to the frequency of occurrence. Binding was calculated over non-recombinant T7, depicted are mean values ± SD of three independent experiments. (B) RMS-P3 and RMS-P6 phage distribution in RD mouse xenografts. Homing of phages to tumor was compared to control organs. Binding was normalized over phage T7 and tissue weight. Mean values ± SD of four independent experiments are shown. Numerical values for tumor to organ ratios are indicated above the bars. (C) Validation of RMS-P3 peptide sequence by competition of phage binding. 10^6 RD cells were incubated for 30 min with increasing concentrations of RMS-P3 peptide ([…]) or control peptide ([…]). Then, phages (10^9 pfu) were added for 1 h. Phage binding was normalized over non-recombinant T7. Data are presented as percentage of maximal phage binding obtained in the absence of synthetic peptide. Error bars indicate mean ± SD from three independent experiments. […] TEXT PRINTED IN THE PICTURE: (B) RMS-P6: tumor: 1; muscle: 1/6; kidney: 1/8; brain: 1/28; skin: 1/12 | (B) RMS-P3: tumor: 1; muscle: 1/24; kidney: 1/15; brain: 1/12; skin: 1/10 DOUBTS OF THE COPYIST ABOUT THIS PICTURE: Panel B: the picture prints no measure for the numbers over the bars. Each tissue name was assigned from the bar fill and the order of the printed key. / RMS-P6, brain: 1/28, the last digit may be 8 or 6 (small print)
Phage (10^10 pfu) from in vitro biopannings were tail vein injected into mice bearing size-matched RMS tumors (500 mm^3) as described in [57].

A365 cells = test: phage binding to melanoma cells; type: cell-based; conditions: compared to myoblasts and fibroblasts; p<0.05
Protocol: as §4

Rh4 cells = test: phage binding to Rh4 cells; type: cell-based; conditions: three independent experiments
Protocol: as §1

Rh30 cells = test: phage binding to Rh30 cells; type: cell-based; conditions: three independent experiments
Protocol: as §1

[3] = system: RD xenograft tumors and control organs; test: FITC-peptide distribution in xenograft mice; type: in vivo, mouse; conditions: RD xenografts, i.v., 10 min circulation
Protocol: Figure 2 FITC-labeled RMS-P3 binding in vitro and distribution in vivo. (A) Visualization of FITC-RMS-P3 peptide binding in normal and cancer cells in vitro. Cultured myoblasts (SkMC-c), fibroblasts (MRC-5), RMS cells (RD) and breast carcinoma cells (MDA-MB 231) were incubated with 100 nM FITC-RMS-P3 peptide for 1 h at 37°C. Fluorescence microscopy of fixed cells is shown. (B) Living RD cells were incubated with FITC-RMS-P3 peptide, subsequently fixed and stained with giantin (red). Colocalization is shown in the merged picture by yellow. Blue staining (DAPI) indicates the nuclei. Magnifications: 40x, scale bars: 20 µm. (C) Distribution of FITC-RMS-P3 and control peptide FITC-RMS-Pctrl in mice xenografts of RD cells. FITC-RMS-P3 or control FITC-RMS-Pctrl peptide were injected i.v. and after 10 minutes of circulation, mice were perfused and tumor and control organs were collected. Cryosections were double-labeled with mouse endothelial vessels markers CD31 and MECA-32 (red). Nuclear staining by DAPI is shown in blue. Magnifications: 40x, scale bars: 20 µm.
Figure 3 Identification of the receptor for RMS-P3. (A) Alanine-scan of the RMS-P3 sequence. RMS-P3 was mutated by replacing each amino acid residue with alanine (codon GCT). All phage mutants were tested individually for binding to RD cells in vitro. Mutated residues are indicated in bold. Phage binding was quantified over non-recombinant T7 and compared to the binding of wild type phage RMS-P3. Depicted are mean values ± SD of three independent experiments. […] (B) FITC-RMS-P3/RR and FITC-RMS-P3/AA distribution in RD xenograft mice. After tail vein injection of both FITC-RMS-P3/RR or control peptide RMS-P3/AA and circulation of 10 min, mice were perfused, tumors and control organs were dissected and FITC-peptide distribution (green) was evaluated in cryosections under fluorescence microscopy. Blood endothelial stainings (CD31 and MECA32) are shown in red, nuclear staining in blue (DAPI). Magnification: 20x, scale bar 50 µm. (C) Expression of proprotein convertases (PCs) measured by microarray profiling of 9 RMS cell lines and 30 RMS biopsy samples. Expression of PCs recognizing the cleavage site R(X)(R/K)(R/K) were considered. Each cell line or biopsy is represented by one data point. (D) Furin expression in different cell lines. Normal myoblasts (SkMC-c), fibroblasts (MRC-5), RMS cell lines (RD, Rh4, Rh30), furin-deficient colorectal carcinoma cells (LoVo) and furin-positive breast carcinoma cells (MBA-MB 231) were tested for furin expression by qRT-PCR (upper graph). […] Western blot (lower panels). Immature membrane-bound furin was detected at 103 kD, mature furin at 97 kD. PCNA was used as loading control.
Figure 6 FITC-RMS-P3/RR and FITC-RMS-P3/AA distribution in mice bearing RD xenografts. Peptides were injected i.v. and after circulation the mice were perfused, tumors and control organs were removed and peptide distribution was evaluated on cryosections by fluorescence microscopy. Depicted are overlay images (B, upper left panel) and single channel pictures. FITC-peptide stainings (green), either furin or endothelial stainings (CD31, MECA32) in red and cell nuclei in blue (DAPI) are shown. Magnification: 40x, scale bars 50 µm.
Supplementary file pone.0010445.s002.tif: Figure S2 Subcellular localization of FITC-RMS-P3 peptide. (A, B) FITC-RMS-P3/RR cell surface and intracellular localization. RD cells were incubated with 100 nM FITC-RMS-P3 peptide in vitro for 30 min at 4°C (A) or 37°C (B), respectively. Fixed cells were stained with undiluted 5.1H11 hybridoma supernatant against the human muscle-specific cell surface antigen N-CAM (red). A secondary rabbit anti-mouse Cy3 antibody (1∶300, Invitrogen) was used for detection. […] Cell nuclei were visualized with DAPI. Nuclei are indicated in grey. Magnification: 63x, scale bars: 20 µm. […]

[4] = system: RMS cells (RD, Rh4, Rh30); test: phage binding to RMS cell lines versus normal cells; type: cell-based; conditions: control phage
Protocol: as §1

[5] = target: recombinant human furin without membrane-domain (81 kD) (human) (UniProt P09958)

CMGTINTRTRRC (disulfide 1-12 (inferred)) [RMS-P3/RR]
furin activity remaining (recombinant human furin [1]; 100 µM peptide, % of the control, furin 3.3U, 15 min preincubation RT, substrate 100 µM, 50 mM Tris HCl, 1 mM CaCl2, pH 7, three independent experiments): 14 % of the control | effect on furin activity (recombinant human furin [1]; increasing concentrations): concentration dependent decrease of furin activity | phage binding to RD cells compared to RMS-P3 (RD cells; both Lys replaced by Arg, One-way ANOVA, Tukey Kramer HSD, p<0.05 vs all other alanine mutants): no significant difference in binding to RD cells | furin in competitive eluate from peptide column (membrane-bound furin): competitive eluates contained detectable amounts of membrane-bound furin | binding of recombinant furin to peptide column (recombinant human furin [2]): detected a furin band in the specific eluate

CMGTINTRTKKC (disulfide 1-12 (inferred)) [phage RMS-P3]
phage binding to glioblastoma cells (U87MG cells): significant binding; also recorded: very good binding | tumor/muscle ratio (Rh4 xenograft tumors): 24 fold | phage binding to breast carcinoma cells (MDA-MB 231 cells): significant binding; also recorded: very good binding | phage binding to tumors versus any other organ (RD xenograft tumors): bound significantly better to tumors than to any other organ | tumor/muscle ratio (RD xenograft tumors; phage, eRMS (RD) xenograft): 24 fold | phage binding to melanoma cells (A365 cells): significant binding; also recorded: very good binding

CMGTTNTRTKKC (disulfide 1-12 (inferred)) [RMS-P6]
phage binding compared to non-recombinant phage T7 (Rh4 cells): 230 fold | phage binding compared to non-recombinant phage T7 (RD cells; RD cells, three independent experiments): 1270 fold | phage binding to tumors versus any other organ (RD xenograft tumors): bound significantly better to tumors than to any other organ | phage binding compared to non-recombinant phage T7 (Rh30 cells): 120 fold

CMGTINTATAAC (disulfide 1-12 (inferred)) [RMS-P3/AA]
peptide uptake in kidney [3]: found in the kidneys | peptide accumulation in tumor ([3]; cryosections): did not accumulate in the tumor; also recorded: No fluorescence was detectable | decrease in phage binding compared to RMS-P3 (RD cells; alanine-scan, RD cells, three independent experiments, p<0.05): 70 fold | furin in competitive eluate from peptide column (membrane-bound furin): not the case | binding of recombinant furin to peptide column (recombinant human furin [2]): did not bind recombinant furin

CSPNNTRRPNKC (disulfide 1-12 (inferred)) [phage RMS-Pctrl, phage displaying […], arose spontaneously during the in vitro screening; negative control]
binding to tumor cells [4]: no binding to tumor cells

B1: RMS-P3/RR peptide (peptide)
peptide: CMGTINTRTRRC
modifications: not fully specified (bridges); also: cyclic peptide, mode of cyclisation not given here
furin activity (cleavage of the fluorogenic substrate Boc-RRVR-AMC by 3.3U recombinant furin) with increasing concentrations of RMS-P3/RR (10-100 µM); activity left at 100 µM (% of the control) [5]: 14
